Laboratory results: patent US8722903B2, “Indazole derivatives for the treatment of HSP9O-induced diseases” (Merck Patent GmbH, priority 2006, dated 2014)

What follows are compounds tested against T1, Recombinant human HSP90α (Homo sapiens, UniProt P07900) (assay: Radioligand filter binding test: competitive inhibition of [3H]17AAG binding to HSP90). Details: [3H]17AAG 0.08 μM, HSP90 1.5 μg/assay, 22° C., 30 min.
T1 construct: host or cells: E. coli
Description: In the specific case, a radioligand filter binding test is used. The radioligand used here is tritium-labelled 17-allylaminogeldanamycin, [3H]17AAG, This filter binding test allows a targeted search for inhibitors which interfere with the ATP binding site.
Recombinant human HSP90α (E. coli expressed, 95% purity);
HEPES filter buffer (50 mM HEPES, pH 7.0, 5 mM MgCl2, BSA 0.01%) Multiscreen FB (1 μm) filter plate (Millipore, MAFBNOB 50).
The 96-well microtitre filter plates are firstly irrigated and coated with 0.1% of polyethylenimine.
The test is carried out under the following conditions:
Reaction temperature 22° C.
Reaction time: 30 min., shaking at 800 rpm
50 mM HEPES HCl, pH 7.0, 5 mM MgCl2, 0.01% (w/v) of BSA
At the end of the reaction, the supernatant in the filter plate is removed by suction with the aid of a vacuum manifold (Multiscreen Separation System, Millipore), and the filter is washed twice.
The filter plates are then measured in a beta counter (Microbeta, Wallac) with scintillator (Microscint 20, Packard).
“% of control” is determined from the “counts per minutes” values, and the IC-50 value of a compound is calculated therefrom.

First: COc1cccc(Cc2n[nH]c3cc(O)c(C(=O)N(C)c4ccc(CNS(C)(=O)=O)cc4)cc23)c1 [Compound A162, 5-[N-(4-Methylsulfonylaminomethylphenyl)-N-methylaminocarbonyl]-3-(3-methoxybenzyl)-6-hydroxy-1H-indazole]
Second: CN(Cc1ccccc1)C(=O)c1cc2c(Cc3ccccc3Cl)n[nH]c2cc1O [Compound A32, 5-(N-Benzyl-N-methylaminocarbonyl)-3-(2-chlorobenzyl)-6-hydroxy-1H-indazole]
The IC50 of the first is lower: 10 to 1000 nM for the first, 1000 to 10000 nM for the second. The first is the more potent here.

First: COCCN(C)C(=O)c1cc2c(Cc3cccc(Cl)c3)n[nH]c2cc1O [Compound A41, 5-[N-(2-Methoxyethyl)-N-methylaminocarbonyl]-3-(3-chlorobenzyl)-6-hydroxy-1H-indazole]
Second: CCCCN(C)C(=O)c1cc2c(Cc3cccc(C)c3)n[nH]c2cc1O [Compound A25, 5-(N-Butyl-N-methylaminocarbonyl)-3-(3-methylbenzyl)-6-hydroxy-1H-indazole]
The IC50 of the first is higher: 1000 to 10000 nM for the first, 10 to 1000 nM for the second. The second is the more potent here.

`CN(Cc1cccc(Br)c1)C(=O)c1cc2c(Cc3ccccc3)n[nH]c2cc1O` [Compound A26, 5-[N-(3-Bromobenzyl)-N-methylaminocarbonyl]-3-benzyl-6-hydroxy-1H-indazole] and `CCCCN(C)C(=O)c1cc2c(Cc3ccc(C)cc3)n[nH]c2cc1O` [Compound A64, 5-(N-Butyl-N-methylaminocarbonyl)-3-(4-methylbenzyl)-6-hydroxy-1H-indazole] fall in the same range of IC50: 1000 to 10000 nM for the first, 1000 to 10000 nM for the second.

`Cc1cccc(Cc2n[nH]c3cc(O)c(C(=O)N(C)c4cccc(OC(F)(F)F)c4)cc23)c1` [Compound A154, 5-[N-(3-Trifluoromethoxyphenyl)-N-methylaminocarbonyl]-3-(3-methylbenzyl)-6-hydroxy-1H-indazole] and `CCCc1n[nH]c2cc(O)c(C(=O)N(C)c3ccc(OC)c(OC)c3)cc12` [Compound A174, 5-[N-(3,4-Dimethoxyphenyl)-N-methylaminocarbonyl]-3-propyl-6-hydroxy-1H-indazole] fall in the same range of IC50: 10 to 1000 nM for the first, 10 to 1000 nM for the second.

First: COc1ccc(C)cc1CN(C)C(=O)c1cc2c(Cc3ccccc3)n[nH]c2cc1O [Compound A20, 5-[N-(2-Methoxy-5-methylbenzyl)-N-methylaminocarbonyl]-3-benzyl-6-hydroxy-1H-indazole]
Second: COc1cccc(N(C)C(=O)c2cc3c(CC4CCCC4)n[nH]c3cc2O)c1 [Compound A257, 5-[N-(3-Methoxyphenyl)-N-methylaminocarbonyl]-3-cyclopentylmethyl-6-hydroxy-1H-indazole]
The IC50 of the first is higher: 1000 to 10000 nM for the first, 10 to 1000 nM for the second. The second is the more potent here.

`Cc1cccc(Cc2n[nH]c3cc(O)c(C(=O)N(C)Cc4ccc5c(c4)OCCO5)cc23)c1` [Compound A101, 5-[N-(2,3-Dihydrobenzo-1,4-dioxin-6-ylmethyl)-N-methylaminocarbonyl]-3-(3-methylbenzyl)-6-hydroxy-1H-indazole] and `CCCc1n[nH]c2cc(O)c(C(=O)N(C)c3ccc(CNS(C)(=O)=O)cc3)cc12` [Compound A177, 5-[N-(4-Methylsulfonylaminomethylphenyl)-N-methylaminocarbonyl]-3-propyl-6-hydroxy-1H-indazole] fall in the same range of IC50: 10 to 1000 nM for the first, 10 to 1000 nM for the second.

First: Cc1cccc(Cc2n[nH]c3cc(O)c(C(=O)N(C)c4ccc(CN5CCOCC5)cc4)cc23)c1 [Compound A191, 5-[N-(4-Morpholin-4-ylmethylphenyl)-N-methylaminocarbonyl]-3-(3-methylbenzyl)-6-hydroxy-1H-indazole]
Second: CCc1ccc(Cc2n[nH]c3cc(O)c(C(=O)N(C)Cc4ccccc4)cc23)cc1 [Compound A71, 5-(N-Benzyl-N-methylaminocarbonyl)-3-(4-ethylbenzyl)-6-hydroxy-1H-indazole]
The IC50 of the first is lower: 10 to 1000 nM for the first, 1000 to 10000 nM for the second.

`CN(Cc1ccccc1)C(=O)c1cc2c(CCc3ccccc3)n[nH]c2cc1O` [Compound A181, 5-(N-Benzyl-N-methylaminocarbonyl)-3-phenethyl-6-hydroxy-1H-indazole] and `CCCCN(C)C(=O)c1cc2c(Cc3cccc(Cl)c3)n[nH]c2cc1O` [Compound A39, 5-(N-Butyl-N-methylaminocarbonyl)-3-(3-chlorobenzyl)-6-hydroxy-1H-indazole] fall in the same range of IC50: 10 to 1000 nM for the first, 10 to 1000 nM for the second.

`COc1ccc(N(C)C(=O)c2cc3c(Cc4cccc(C)c4)n[nH]c3cc2O)cc1OC` [Compound A145, 5-[N-(3,4-Dimethoxyphenyl)-N-methylaminocarbonyl]-3-(3-methylbenzyl)-6-hydroxy-1H-indazole] and `COc1ccc(N(C)C(=O)c2cc3c(Cc4cccc(OC)c4)n[nH]c3cc2O)cc1` [Compound A160, 5-[N-(4-Methoxyphenyl)-N-methylaminocarbonyl]-3-(3-methoxybenzyl)-6-hydroxy-1H-indazole] fall in the same range of IC50: 10 to 1000 nM for the first, 10 to 1000 nM for the second.

`CCCN(C)C(=O)c1cc2c(Cc3ccc(C)c(C)c3)n[nH]c2cc1O` [Compound A73, 5-(N-Propyl-N-methylaminocarbonyl)-3-(3,4-dimethylbenzyl)-6-hydroxy-1H-indazole] and `CCCN(C)C(=O)c1cc2c(Cc3ccccc3)n[nH]c2cc1O` [Compound A4, 5-(N-propyl-N-methylaminocarbonyl)-3-benzyl-6-hydroxy-1H-indazole] fall in the same range of IC50: 1000 to 10000 nM for the first, 1000 to 10000 nM for the second.

First: CN(Cc1ccccc1)C(=O)c1cc2c(Cc3cccc(Cl)c3)n[nH]c2cc1O [Compound A40, 5-(N-Benzyl-N-methylaminocarbonyl)-3-(3-chlorobenzyl)-6-hydroxy-1H-indazole]
Second: Cc1ccccc1Cc1n[nH]c2cc(O)c(C(=O)N(C)Cc3ccccc3)cc12 [Compound A44, 5-(N-Benzyl-N-methylaminocarbonyl)-3-(2-methylbenzyl)-6-hydroxy-1H-indazole]
The IC50 of the first is lower: 10 to 1000 nM for the first, 1000 to 10000 nM for the second.

“5-[N-(3-Methoxybenzyl)-N-methylaminocarbonyl]-3-benzyl-6-hydroxy-1H-indazole [Compound A27]” and `COc1cccc(CN(C)C(=O)c2cc3c(Cc4ccccc4)n[nH]c3cc2O)c1OC` [Compound A23, 5-[N-(2,3-Dimethoxybenzyl)-N-methylaminocarbonyl]-3-benzyl-6-hydroxy-1H-indazole] fall in the same range of IC50: 10 to 1000 nM for the first, 10 to 1000 nM for the second.

`CCCCN(C)C(=O)c1cc2c(Cc3ccccc3Cl)n[nH]c2cc1O` [Compound A33, 5-(N-Butyl-N-methylaminocarbonyl)-3-(2-chlorobenzyl)-6-hydroxy-1H-indazole] and `CN(Cc1cccc(Cl)c1)C(=O)c1cc2c(Cc3ccccc3)n[nH]c2cc1O` [Compound A10, 5-[N-(3-Chlorobenzyl)-N-methylaminocarbonyl]-3-benzyl-6-hydroxy-1H-indazole] fall in the same range of IC50: 1000 to 10000 nM for the first, 1000 to 10000 nM for the second.

First: CN(Cc1cccc2c1OCO2)C(=O)c1cc2c(Cc3ccccc3)n[nH]c2cc1O [Compound A30, 5-[N-(Benzo-1,3-dioxol-4-ylmethyl)-N-methylaminocarbonyl]-3-benzyl-6-hydroxy-1H-indazole]
Second: Cc1ccc(Cc2n[nH]c3cc(O)c(C(=O)N(C)c4ccccc4)cc23)cc1 [Compound A122, 5-(N-Phenyl-N-methylaminocarbonyl)-3-(4-methylbenzyl)-6-hydroxy-1H-indazole]
The IC50 of the first is higher: 1000 to 10000 nM for the first, 10 to 1000 nM for the second. The second is the more potent here.

Compared with `Cc1ccc(N(C)C(=O)c2cc3c(CC4CCCC4)n[nH]c3cc2O)cc1` [Compound A256, 5-[N-(4-Methylphenyl)-N-methylaminocarbonyl]-3-cyclopentylmethyl-6-hydroxy-1H-indazole], `CCCCN(C)C(=O)c1cc2c(Cc3ccccc3C)n[nH]c2cc1O` [Compound A43, 5-(N-Butyl-N-methylaminocarbonyl)-3-(2-methylbenzyl)-6-hydroxy-1H-indazole] is higher in IC50: 10 to 1000 nM for the first, 1000 to 10000 nM for the second.

First: COc1cc(N(C)C(=O)c2cc3c(Cc4cccc(C)c4)n[nH]c3cc2O)ccc1N1CCN(C)CC1 [Compound A190, 5-{N-[3-Methoxy-4-(4-methylpiperazin-1-yl)phenyl]-N-methylaminocarbonyl}-3-(3-methylbenzyl)-6-hydroxy-1H-indazole]
Second: COCCN(C)C(=O)c1cc2c(Cc3cccc(C)c3)n[nH]c2cc1O [Compound A37, 5-[N-(2-Methoxyethyl)-N-methylaminocarbonyl]-3-(3-methylbenzyl)-6-hydroxy-1H-indazole]
The IC50 of the first is lower: 10 to 1000 nM for the first, 1000 to 10000 nM for the second.

First: Cc1cccc(Cc2n[nH]c3cc(O)c(C(=O)N(C)C4CCCCC4)cc23)c1 [Compound A195, 5-(N-Cyclohexyl-N-methylaminocarbonyl)-3-(3-methylbenzyl)-6-hydroxy-1H-indazole]
Second: COCCN(C)C(=O)c1cc2c(Cc3ccccc3C)n[nH]c2cc1O [Compound A45]
The IC50 of the first is lower: 1000 to 10000 nM for the first, greater than 10000 nM for the second.

`COc1ccc(Cl)cc1CN(C)C(=O)c1cc2c(Cc3ccccc3)n[nH]c2cc1O` [Compound A31, 5-[N-(3-Chloro-6-methoxybenzyl)-N-methylaminocarbonyl]-3-benzyl-6-hydroxy-1H-indazole] and `CCCN(C)C(=O)c1cc2c(Cc3cccc(C)c3)n[nH]c2cc1O` [Compound A38, 5-(N-Propyl-N-methylaminocarbonyl)-3-(3-methylbenzyl)-6-hydroxy-1H-indazole] fall in the same range of IC50: 1000 to 10000 nM for the first, 1000 to 10000 nM for the second.

First: CCCN(C)C(=O)c1cc2c(Cc3ccccc3Cl)n[nH]c2cc1O [Compound A35, 5-(N-Propyl-N-methylaminocarbonyl)-3-(2-chlorobenzyl)-6-hydroxy-1H-indazole]
Second: CCc1ccc(CN(C)C(=O)c2cc3c(Cc4ccccc4)n[nH]c3cc2O)cc1 [Compound A28, 5-[N-(4-Ethylbenzyl)-N-methylaminocarbonyl]-3-benzyl-6-hydroxy-1H-indazole]
The IC50 of the first is higher: 1000 to 10000 nM for the first, 10 to 1000 nM for the second. The second is the more potent here.
